*1 amine or outer side, *2 acyl side, *3 side chain or, on linkers, in order; H or OH if unused. Where a SMILES comes first, the peptide text is derived from it. Bridges are numbered along the chain shown (N, C = ends). [ ]: non-standard residue; d: D form. The star is where a group is joined. X3 = c1ccc(OC[C@@H]2CCCN2*)cc1; X5 = c1ccc(NC[C@@H]2CCCN2*)cc1; X8 = c1ccc(CC[C@@H]2CCCN2*)cc1; Cysteamide = C(CS[*:3])N[*:1]; X1 = c1ccc([C@@H]2CCCN2*)nc1; X6 = Cc1nnc([C@@H]2CCCN2*)o1; X9 = C1CCN(C2CCN(*)CC2)C1; Pyrrolidide = C1CCN(*)C1; X4 = COC[C@@H]1CCCN1*; X10 = CN1CCCN(*)CC1; X2 = C[C@H]1CCCN1*; X7 = CC(C)CCN(C)*; Mpa = O=C(O)CCS
How the values were obtained:
Oxytocin receptor = target: T1, Oxytocin receptor (Homo sapiens, UniProt P30559); assay: Agonist activity at human OTR expressed in CHO cells assessed as increase in calcium flux after 60 to 120 mins by fluo-4 dye based FLIPR assay; format: functional, cell-based
T1 sequence (P30559 whole entry): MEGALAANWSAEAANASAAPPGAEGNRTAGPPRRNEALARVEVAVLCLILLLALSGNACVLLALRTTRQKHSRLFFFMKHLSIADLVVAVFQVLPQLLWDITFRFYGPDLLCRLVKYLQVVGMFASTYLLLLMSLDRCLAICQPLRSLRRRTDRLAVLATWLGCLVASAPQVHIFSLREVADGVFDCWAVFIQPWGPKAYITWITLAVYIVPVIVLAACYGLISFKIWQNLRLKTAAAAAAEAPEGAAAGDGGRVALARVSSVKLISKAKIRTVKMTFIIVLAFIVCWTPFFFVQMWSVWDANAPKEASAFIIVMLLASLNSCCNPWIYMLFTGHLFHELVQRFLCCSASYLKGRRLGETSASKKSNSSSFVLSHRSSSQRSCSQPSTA

[1] = Stability in human liver microsomes by LC/MS/MS analysis; format: ADME, microsome; details: read-out: Stability
Vasopressin V1a receptor = Vasopressin V1a receptor (Homo sapiens, UniProt P37288); assay: Agonist activity at vasopressin 1a receptor (unknown origin); format: functional
[2] = target: T2, Oxytocin receptor (Homo sapiens) (UniProt P30559); assay: Agonist activity at human OTR expressed in CHO cells assessed as increase in calcium flux after 60 to 120 mins by fluo-4 dye based FLIPR assay relative to control; format: functional, cell-based
T2 sequence (whole entry): T1 sequence (P30559 whole entry)

Chain of Vasopressin V1a receptor (P37288 whole entry): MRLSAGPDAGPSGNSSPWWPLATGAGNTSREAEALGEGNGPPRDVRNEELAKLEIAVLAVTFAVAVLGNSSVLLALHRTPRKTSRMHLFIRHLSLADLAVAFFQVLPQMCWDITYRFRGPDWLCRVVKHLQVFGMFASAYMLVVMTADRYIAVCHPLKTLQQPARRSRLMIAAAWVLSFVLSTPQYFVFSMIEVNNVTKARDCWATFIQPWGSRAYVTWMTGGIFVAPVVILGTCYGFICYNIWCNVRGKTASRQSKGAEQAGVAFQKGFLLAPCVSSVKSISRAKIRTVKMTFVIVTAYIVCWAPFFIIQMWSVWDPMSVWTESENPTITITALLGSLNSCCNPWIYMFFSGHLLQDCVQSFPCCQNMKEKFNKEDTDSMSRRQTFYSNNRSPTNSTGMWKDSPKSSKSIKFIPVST

SMILES | EC50 (Oxytocin receptor) [nM] | CLint scaled [1] [mL/min/kg] | EC50 (Vasopressin V1a receptor) [nM] | Efficacy [2] [%]
CC[C@H](C)[C@@H]1NC(=O)[C@H](Cc2ccc(O)cc2)NC(=O)CCSSC[C@@H](C(=O)N2CCC[C@H]2c2nnc(C)o2)NC(=O)[C@H](CC(N)=O)NC(=O)[C@H](CCC(N)=O)NC1=O ([Mpa]YIQNC-X6; disulfide 1-6) | 0.6 | < 8 | > 1000 | 77
CC[C@H](C)[C@@H]1NC(=O)[C@H](Cc2ccc(O)cc2)NC(=O)CCSSC[C@@H](C(=O)N2CCC[C@H]2COC)NC(=O)[C@H](CC(N)=O)NC(=O)[C@H](CCC(N)=O)NC1=O ([Mpa]YIQNC-X4; disulfide 1-6) | 0.44 | < 8 | > 1000 | 91
CC[C@H](C)[C@@H]1NC(=O)[C@H](Cc2ccc(O)cc2)NC(=O)CCSSC[C@@H](C(=O)N2CCC[C@H]2C(=O)N(C)CCC(C)C)NC(=O)[C@H](CC(N)=O)NC(=O)[C@H](CCC(N)=O)NC1=O ([Mpa]YIQNCP-X7; disulfide 1-6) | 1.8 | 25.5 | > 1000 | 94
CC[C@H](C)[C@@H]1NC(=O)[C@H](Cc2ccc(O)cc2)NC(=O)CCSSC[C@@H](C(=O)N2CCC[C@@H]2C)NC(=O)[C@H](CC(N)=O)NC(=O)[C@H](CCC(N)=O)NC1=O ([Mpa]YIQNC-X2; disulfide 1-6) | 0.6 | < 8 | > 1000 | 84
CC[C@H](C)[C@@H]1NC(=O)[C@H](Cc2ccc(O)cc2)NC(=O)[C@@H](N)CSSC[C@@H](C(=O)N2CCC[C@H]2C(=O)N[C@@H](CC(C)C)C(=O)NCC(N)=O)NC(=O)[C@H](CC(N)=O)NC(=O)[C@H](CCC(N)=O)NC1=O [OXYTOCIN] | – | 30 | – | 102
CC[C@H](C)[C@@H]1NC(=O)[C@H](Cc2ccc(O)cc2)NC(=O)CCSSCCNC(=O)[C@H](CC(N)=O)NC(=O)[C@H](CCC(N)=O)NC1=O ([Mpa]YIQN-Cysteamide; disulfide 1-C) | 28 | < 8 | > 1000 | 67
CC[C@H](C)[C@@H]1NC(=O)[C@H](Cc2ccc(O)cc2)NC(=O)CCSSC[C@@H](C(=O)N2CCC[C@H]2C(=O)N2CCCN(C)CC2)NC(=O)[C@H](CC(N)=O)NC(=O)[C@H](CCC(N)=O)NC1=O ([Mpa]YIQNCP-X10; disulfide 1-6) | 3.6 | – | > 1000 | 98
CC[C@H](C)[C@@H]1NC(=O)[C@H](Cc2ccc(O)cc2)NC(=O)CCSSC[C@@H](C(N)=O)NC(=O)[C@H](CC(N)=O)NC(=O)[C@H](CCC(N)=O)NC1=O | 5.4 | < 8 | > 1000 | 90
CC[C@H](C)[C@@H]1NC(=O)[C@H](Cc2ccc(O)cc2)NC(=O)CCSSC[C@@H](C(=O)N2CCC[C@H]2c2ccccn2)NC(=O)[C@H](CC(N)=O)NC(=O)[C@H](CCC(N)=O)NC1=O ([Mpa]YIQNC-X1; disulfide 1-6) | 0.83 | < 8 | > 1000 | 80
CC[C@H](C)[C@@H]1NC(=O)[C@H](Cc2ccc(O)cc2)NC(=O)CCSSC[C@@H](C(=O)N2CCC[C@H]2C(N)=O)NC(=O)[C@H](CC(N)=O)NC(=O)[C@H](CCC(N)=O)NC1=O | 1.3 | < 8 | > 1000 | 89
CC[C@H](C)[C@@H]1NC(=O)[C@H](Cc2ccc(O)cc2)NC(=O)CCSSC[C@@H](C(=O)N2CCCC2)NC(=O)[C@H](CC(N)=O)NC(=O)[C@H](CCC(N)=O)NC1=O ([Mpa]YIQNC-Pyrrolidide; disulfide 1-6) | 0.51 | < 8 | > 1000 | 97
CC[C@H](C)[C@@H]1NC(=O)[C@H](Cc2ccc(O)cc2)NC(=O)CCSSC[C@@H](C(=O)N2CCC[C@H]2C(=O)N2CCC(N3CCCC3)CC2)NC(=O)[C@H](CC(N)=O)NC(=O)[C@H](CCC(N)=O)NC1=O ([Mpa]YIQNCP-X9; disulfide 1-6) | 6.8 | – | > 1000 | 98
CC[C@H](C)[C@@H]1NC(=O)[C@H](Cc2ccc(O)cc2)NC(=O)CCSSC[C@@H](C(=O)N2CCC[C@H]2CNc2ccccc2)NC(=O)[C@H](CC(N)=O)NC(=O)[C@H](CCC(N)=O)NC1=O ([Mpa]YIQNC-X5; disulfide 1-6) | 0.77 | 40 | > 1000 | 76
CC[C@H](C)[C@@H]1NC(=O)[C@H](Cc2ccc(O)cc2)NC(=O)CCSSC[C@@H](C(=O)N2CCC[C@H]2C(=O)N[C@@H](CC(C)C)C(=O)NCC(N)=O)NC(=O)[C@H](CC(N)=O)NC(=O)[C@H](CCC(N)=O)NC1=O | – | < 8 | – | 106
CC[C@H](C)[C@@H]1NC(=O)[C@H](Cc2ccc(O)cc2)NC(=O)CCSSC[C@@H](C(=O)N2CCC[C@H]2C(=O)N[C@@H](CC(C)C)C(N)=O)NC(=O)[C@H](CC(N)=O)NC(=O)[C@H](CCC(N)=O)NC1=O | 1.8 | < 8 | > 1000 | 82
CC[C@H](C)[C@@H]1NC(=O)[C@H](Cc2ccc(O)cc2)NC(=O)CCSSC[C@@H](C(=O)N2CCC[C@H]2COc2ccccc2)NC(=O)[C@H](CC(N)=O)NC(=O)[C@H](CCC(N)=O)NC1=O ([Mpa]YIQNC-X3; disulfide 1-6) | 194 | 123 | > 1000 | 52
CC[C@H](C)[C@@H]1NC(=O)[C@H](Cc2ccc(O)cc2)NC(=O)CCSSC[C@@H](C(=O)N2CCC[C@H]2CCc2ccccc2)NC(=O)[C@H](CC(N)=O)NC(=O)[C@H](CCC(N)=O)NC1=O ([Mpa]YIQNC-X8; disulfide 1-6) | 5.2 | 153 | > 1000 | 59
